Measurements as given in paper PMC9866191, “Novel 9-Benzylaminoacridine Derivatives as Dual Inhibitors of Phosphodiesterase 5 and Topoisomerase II for the Treatment of Colon Cancer” (Molecules, 2023).

Experiments:
Experiment in all cases: NCI-60 one-dose screen
Type in all cases: cell-based
SR = conditions: Homo sapiens, Leukemia panel, single dose 10^−5 M, read-out: Growth inhibition %
ACHN = conditions: Homo sapiens, Renal Cancer panel, single dose 10^−5 M, read-out: Growth inhibition %
SW-620 = conditions: Homo sapiens; SW-620, Colon Cancer panel; single dose 10^−5 M; read-out: Growth inhibition %
SK-MEL-5 = conditions: Homo sapiens; SK-MEL-5, Melanoma panel; single dose 10^−5 M; read-out: Growth inhibition %
HCC-2998 = conditions: Homo sapiens; HCC-2998, Colon Cancer panel; single dose 10^−5 M; read-out: Growth inhibition %
MCF7 = conditions: Homo sapiens; MCF7, Breast Cancer panel; single dose 10^−5 M; read-out: Growth inhibition %
PC-3 = conditions: Homo sapiens; PC-3, Prostate Cancer panel; single dose 10^−5 M; read-out: Growth inhibition %
U251 = conditions: Homo sapiens, U-251; U251, CNS Cancer panel; single dose 10^−5 M; read-out: Growth inhibition %
SNB-19 = conditions: Homo sapiens; SNB-19, CNS Cancer panel; single dose 10^−5 M; read-out: Growth inhibition %
NCI-H226 = conditions: Homo sapiens; NCI-H226, Non-small cell lung panel; single dose 10^−5 M; read-out: Growth inhibition %
A549/ATCC = conditions: Homo sapiens, Non-small cell lung panel, single dose 10^−5 M, read-out: Growth inhibition %
COLO 205 = conditions: Homo sapiens; COLO 205, Colon Cancer panel; single dose 10^−5 M; read-out: Growth inhibition %
SK-MEL-28 = conditions: Homo sapiens; SK-MEL-28, Melanoma panel; single dose 10^−5 M; read-out: Growth inhibition %
DU-145 = conditions: Homo sapiens; DU-145, Prostate Cancer panel; single dose 10^−5 M; read-out: Growth inhibition %
KM12 = conditions: Homo sapiens; KM12, Colon Cancer panel; single dose 10^−5 M; read-out: Growth inhibition %
SF-539 = conditions: Homo sapiens; SF-539, CNS Cancer panel; single dose 10^−5 M; read-out: Growth inhibition %
NCI/ADR-RES = conditions: Homo sapiens, Ovarian Cancer panel, single dose 10^−5 M, read-out: Growth inhibition %
BT-549 = conditions: Homo sapiens; BT-549, Breast Cancer panel; single dose 10^−5 M; read-out: Growth inhibition %
HCT-116 = conditions: Homo sapiens, read-out: Growth inhibition %
MDA-MB-468 = conditions: Homo sapiens; MDA-MB-468, Breast Cancer panel; single dose 10^−5 M; read-out: Growth inhibition %
K-562 = conditions: Homo sapiens, K562; K-562, Leukemia panel; single dose 10^−5 M; read-out: Growth inhibition %
NCI-H522 = conditions: Homo sapiens; NCI-H522, Non-small cell lung panel; single dose 10^−5 M; read-out: Growth inhibition %
UO-31 = conditions: Homo sapiens; UO-31, Renal Cancer panel; single dose 10^−5 M; read-out: Growth inhibition %
A498 = conditions: Homo sapiens; A498, Renal Cancer panel; single dose 10^−5 M; read-out: Growth inhibition %
SN12C = conditions: Homo sapiens, Renal Cancer panel, single dose 10^−5 M, read-out: Growth inhibition %
HOP-62 = conditions: Homo sapiens; HOP-62, Non-small cell lung panel; single dose 10^−5 M; read-out: Growth inhibition %
786-0 = conditions: Homo sapiens; 786-0, Renal Cancer panel; single dose 10^−5 M; read-out: Growth inhibition %
UACC-62 = conditions: Homo sapiens; UACC-62, Melanoma panel; single dose 10^−5 M; read-out: Growth inhibition %
RXF 393 = conditions: Homo sapiens; RXF 393, Renal Cancer panel; single dose 10^−5 M; read-out: Growth inhibition %
SK-OV-3 = conditions: Homo sapiens; SK-OV-3, Ovarian Cancer panel; single dose 10^−5 M; read-out: Growth inhibition %
CAKI-1 = conditions: Homo sapiens; CAKI-1, Renal Cancer panel; single dose 10^−5 M; read-out: Growth inhibition %
SF-295 = conditions: Homo sapiens; SF-295, CNS Cancer panel; single dose 10^−5 M; read-out: Growth inhibition %

SMILES | inhibition at 10 µM (SR) | inhibition at 10 µM (ACHN) | inhibition at 10 µM (SW-620) | inhibition at 10 µM (SK-MEL-5) | inhibition at 10 µM (HCC-2998) | inhibition at 10 µM (MCF7) | inhibition at 10 µM (PC-3) | inhibition at 10 µM (U251) | inhibition at 10 µM (SNB-19) | inhibition at 10 µM (NCI-H226) | inhibition at 10 µM (A549/ATCC) | inhibition at 10 µM (COLO 205) | inhibition at 10 µM (SK-MEL-28) | inhibition at 10 µM (DU-145) | inhibition at 10 µM (KM12) | inhibition at 10 µM (SF-539) | inhibition at 10 µM (NCI/ADR-RES) | inhibition at 10 µM (BT-549) | inhibition at 10 µM (HCT-116) | inhibition at 10 µM (MDA-MB-468) | further results
Cc1ccc2nc3ccccc3c(NCc3ccc(Cl)cc3)c2c1 [Compound 31, (4-Chlorobenzyl)-(2-methyl-acridin-9-yl)-amine] | 109% | 66.7% | 68% | 46% | 179% | 121% | 60.9% | 74.9% | 49.7% | 27.7% | 59.2% | 153% | 24.5% | 48.6% | 22.9% | 59.8% | 58% | 24.4% | 85.3% | 122% | inhibition at 10 µM (K-562): 97.4%; inhibition at 10 µM (NCI-H522): 45.8%; inhibition at 10 µM (UO-31): 75.5%; inhibition at 10 µM (A498): 87%; inhibition at 10 µM (SN12C): 60.5%; inhibition at 10 µM (HOP-62): 34.8%; inhibition at 10 µM (786-0): 65.3%; inhibition at 10 µM (UACC-62): 26%; inhibition at 10 µM (RXF 393): 71%; inhibition at 10 µM (SK-OV-3): 24.8%; inhibition at 10 µM (CAKI-1): 54.3%; inhibition at 10 µM (SF-295): 56.3%
Fc1ccc(CNc2c3ccccc3nc3ccccc23)cc1 [Compound 10, Acridin-9-yl-(4-fluorobenzyl)-amine] | 93.4% | 87.5% | 77.2% | 57.5% | 81.7% | 92.9% | 73.1% | 74.1% | 67.6% | 48.2% | 76.3% | 92.5% | 31.8% | 65.1% | 71.7% | 86.9% | 70.3% | 19.3% | 87.5% | 88.5% | inhibition at 10 µM (K-562): 95.2%; inhibition at 10 µM (NCI-H522): 47.6%; inhibition at 10 µM (UO-31): 86.5%; inhibition at 10 µM (A498): 102%; inhibition at 10 µM (SN12C): 74.3%; inhibition at 10 µM (HOP-62): 57%; inhibition at 10 µM (786-0): 72.4%; inhibition at 10 µM (UACC-62): 49.8%; inhibition at 10 µM (RXF 393): 99.8%; inhibition at 10 µM (SK-OV-3): 60%; inhibition at 10 µM (CAKI-1): 74.5%; inhibition at 10 µM (SF-295): 72.4%
Clc1ccc(CNc2c3ccccc3nc3ccccc23)cc1 [Compound 13, Acridin-9-yl-(4-chlorobenzyl)-amine] | 97.7% | 77.2% | 69% | 38.8% | 110% | 84% | 61.3% | 53.8% | 56.9% | 24.5% | 60.7% | 91.4% | 19.7% | 45.2% | 64.4% | 69.7% | 63.4% | 29.1% | 84.3% | 70.4% | inhibition at 10 µM (K-562): 95.7%; inhibition at 10 µM (NCI-H522): 33.5%; inhibition at 10 µM (UO-31): 73%; inhibition at 10 µM (A498): 79.2%; inhibition at 10 µM (SN12C): 60.9%; inhibition at 10 µM (HOP-62): 47%; inhibition at 10 µM (786-0): 64.7%; inhibition at 10 µM (UACC-62): 29.3%; inhibition at 10 µM (RXF 393): 70.3%; inhibition at 10 µM (SK-OV-3): 40%; inhibition at 10 µM (CAKI-1): 58.6%; inhibition at 10 µM (SF-295): 40.4%
